Data reported in article PMC4753534 (Journal of Medicinal Chemistry, 2015).
Like-named read-outs stand apart in the source and are kept apart here.

Columns and labels:
[1] = test system: HCV-Luc (HCV JFH-1 strain, genotype 2a); experiment: microbe, parasite or virus in culture; format: cell-based; conditions: Hepatitis C virus, GETYPE2A, values in nM
[2] = biological target: H1-histamine receptor (H1HR) (Homo sapiens, UniProt P35367); experiment: H1HR inhibition assay; format: cell-based; conditions: read-out: H1HR inhibition
H1-histamine receptor (H1HR), sequence (P35367 whole entry): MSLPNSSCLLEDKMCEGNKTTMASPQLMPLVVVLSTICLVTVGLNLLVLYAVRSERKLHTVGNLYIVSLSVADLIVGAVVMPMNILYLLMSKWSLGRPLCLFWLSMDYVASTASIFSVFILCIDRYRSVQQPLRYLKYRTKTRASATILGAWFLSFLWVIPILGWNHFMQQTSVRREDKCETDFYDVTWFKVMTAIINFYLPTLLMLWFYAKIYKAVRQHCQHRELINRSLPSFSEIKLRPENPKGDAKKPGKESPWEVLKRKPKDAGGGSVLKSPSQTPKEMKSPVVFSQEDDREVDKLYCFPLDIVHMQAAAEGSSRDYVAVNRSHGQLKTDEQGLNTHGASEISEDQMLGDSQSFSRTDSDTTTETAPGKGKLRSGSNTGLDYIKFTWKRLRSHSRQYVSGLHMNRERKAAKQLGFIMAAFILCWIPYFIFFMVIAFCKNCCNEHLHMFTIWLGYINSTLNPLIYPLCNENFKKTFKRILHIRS

[3] = mouse, i.p., 24 h, previously reported, cited from earlier work
[4] = test system: hepatitis B virus, HCV replicon, herpes simplex virus-1, human cytomegalovirus, vaccinia virus, dengue virus, influenza A (H1N1) virus, respiratory syncytial …; format: cell-based

With `NCCOCCN1CCN(C(c2ccccc2)c2ccc(Cl)cc2)CC1` (racemic) [Rac-23, 2-(2-(4-((4-Chlorophenyl) (Phenyl)methyl)piperazin-1-yl)ethoxy)ethanamine] the EC50 [1] was under 8 nM.

For `Clc1ccc([C@H](c2ccccc2)N2CCNCC2)cc1` [(S)-1], the inhibition at 0.01 µM [2] is given as about 10% and the “T1/2 Liver” value ([3]; 10 mg/kg) is given as 4.7 h.

In the case of `CN1CCN([C@@H](c2ccccc2)c2ccc(Cl)cc2)CC1` [(S)-2, reference compound], the “T1/2 Liver” value ([3]; 50 mg/kg) is listed as 1.99 h.

With `CCN1CCN([C@@H](c2ccccc2)c2ccc(Cl)cc2)CC1` [(S)-10, (S)-1-((4-Chlorophenyl) (phenyl)methyl)-4-ethylpiperazine] the “antiviral activity in the NIAID antiviral screen” value [4] was “Little or no antiviral activity was detected”.

With `CN1CCN(C(c2ccc(Cl)cc2)c2ccc(Cl)cc2)CC1` [Compound 30, 1-(Bis(4-chlorophenyl)methyl)-4-methylpiperazine] the ALT levels (Alanine transaminase; mouse serum, 10 mg/kg i.p., most time points except t = 2 and 4 h) was at most 80 U/L and the hepatotoxicity (Alanine transaminase; mouse, single 10 mg/kg i.p., ALT also elevated with vehicle only) was “no clear hepatotoxicity was detected”.
